Results reported in ChEMBL document CHEMBL4346665, “Synthesis and evaluation of tetrahydroquinolin-2(1H)-one derivatives as novel anti-pancreatic cancer agents via targeting autophagy” (Eur J Med Chem, 2019).

Tests used:
Settings in all cases: PANC-1, 24 h
[1] = system: PANC-1; assay: Growth inhibition of human PANC1 cells in nutrient-deprived medium at 10 uM incubated for 24 hrs by MTT assay (reference value: 0.0 +/- 1.9%); assay type: functional
[2] = system: PANC-1; assay: Growth inhibition of human PANC1 cells in nutrient-rich medium at 10 uM incubated for 24 hrs by MTT assay (reference value: 0.0 +/- 3.8%); assay type: functional
[3] = system: PANC-1; assay: Growth inhibition of human PANC1 cells in nutrient-deprived medium incubated for 24 hrs by MTT assay; assay type: functional, cell-based

| SMILES | inhibition at 10 µM [1] | inhibition at 10 µM [2] | IC50 [3] |
| --- | --- | --- | --- |
| COc1ccccc1NC(=O)Oc1cc(=O)n(CCCO)c2c1CC(CC=C(C)C)C(C)(C)C2 (stereo not given) | 71.1% | 0% | 7.7 µM |
| CC(C)=CCC/C(C)=C/CC1Cc2c(OC(=O)Nc3cccc(C(F)(F)F)c3)cc(=O)n(CCCO)c2CC1(C)C (stereo not given) | 44% | 6.7% |  |
| CC(C)=CCC1Cc2c(OCCCNC(=O)c3cccs3)cc(=O)n(CCCO)c2CC1(C)C (stereo not given) | 33.6% | 5.6% |  |
| CC(C)=CCC1Cc2c(OC(=O)Nc3cccc(C(F)(F)F)c3)cc(=O)n(CCCO)c2CC1(C)C (stereo not given) | 54.3% | 0% |  |
| CC(C)=CCC/C(C)=C/CC1Cc2c(OCCCNS(=O)(=O)c3ccc(C(F)(F)F)cc3)cc(=O)n(CCCO)c2CC1(C)C (stereo not given) | 26.4% | 0% |  |
| CC(C)=CCC1Cc2c(OC(=O)Nc3cccc(F)c3)cc(=O)n(CCCO)c2CC1(C)C (stereo not given) | 66.1% | 0% |  |
| CC(C)=CCC1Cc2c(OCCCOc3ccc([N+](=O)[O-])cc3)cc(=O)n(CCCO)c2CC1(C)C (stereo not given) | 47.5% | 0% |  |
| COc1ccc(NC(=O)Oc2cc(=O)n(CCCO)c3c2CC(C/C=C(\C)CCC=C(C)C)C(C)(C)C3)cc1 (stereo not given) | 64.1% | 0% | 7.1 µM |
| CC(C)=CCC1Cc2c(OC(=O)Nc3ccc(Cl)cc3)cc(=O)n(CCCO)c2CC1(C)C (stereo not given) | 49.8% | 0% |  |
| COc1ccc(OCCCOc2cc(=O)n(CCCO)c3c2CC(CC=C(C)C)C(C)(C)C3)cc1 (stereo not given) | 47.7% | 4.1% |  |
| CC(C)=CCC1Cc2c(O)cc(=O)n(CCCO)c2CC1(C)C (stereo not given) | 25.6% | 0% |  |
| CC(C)=CCC/C(C)=C/CC1Cc2c(OCCCNS(=O)(=O)c3ccc(Cl)cc3)cc(=O)n(CCCO)c2CC1(C)C (stereo not given) | 14.5% | 16.1% |  |
| CC(C)=CCC/C(C)=C/CC1Cc2c(OC(=O)Nc3ccc(Cl)c(Cl)c3)cc(=O)n(CCCO)c2CC1(C)C (stereo not given) | 20% | 0% |  |
| CC(C)=CCC1Cc2c(OCCCNS(=O)(=O)c3ccc([N+](=O)[O-])cc3)cc(=O)n(CCCO)c2CC1(C)C (stereo not given) | 47.7% | 17.3% |  |
| CC(C)=CCC/C(C)=C/CC1Cc2c(OC(=O)Nc3ccccc3F)cc(=O)n(CCCO)c2CC1(C)C (stereo not given) | 71.6% | 0% | 7.4 µM |
| CC(C)=CCC1Cc2c(OCCCNS(=O)(=O)c3ccc(Cl)cc3)cc(=O)n(CCCO)c2CC1(C)C (stereo not given) | 24.7% | 9.8% |  |
| CC(C)=CCOc1cc(=O)n(CCCO)c2c1CC(CC=C(C)C)C(C)(C)C2 (stereo not given) | 20.7% | 7.5% |  |
| CC(C)=CCC/C(C)=C/CC1Cc2c(OC(=O)Nc3ccc(F)cc3F)cc(=O)n(CCCO)c2CC1(C)C (stereo not given) | 33.7% | 15.6% |  |
| CC(C)=CCC1Cc2c(OCCCNC(=O)c3ccco3)cc(=O)n(CCCO)c2CC1(C)C (stereo not given) | 2.1% | 4.3% |  |
| CC(C)=CCC/C(C)=C/CC1Cc2c(OC(=O)Nc3cccc(F)c3)cc(=O)n(CCCO)c2CC1(C)C (stereo not given) | 52.3% | 0% |  |
| CC(C)=CCC/C(C)=C/CC1Cc2c(OCc3ccccc3)cc(=O)n(CCCO)c2CC1(C)C (stereo not given) | 46.5% | 1.5% |  |
| CC(C)=CCC/C(C)=C/CC1Cc2c(OC(=O)Nc3ccc(F)c(Cl)c3)cc(=O)n(CCCO)c2CC1(C)C (stereo not given) | 25% | 0% |  |
| CC(C)=CCC/C(C)=C/CC1Cc2c(OC(=O)Nc3ccc(F)cc3)cc(=O)n(CCCO)c2CC1(C)C (stereo not given) | 43.9% | 6.2% |  |
| COc1ccccc1NC(=O)Oc1cc(=O)n(CCCO)c2c1CC(C/C=C(\C)CCC=C(C)C)C(C)(C)C2 (stereo not given) | 53% | 0% |  |
| CC(C)=CCC/C(C)=C/CC1Cc2c(OCCCNC(=O)c3ccc([N+](=O)[O-])cc3)cc(=O)n(CCCO)c2CC1(C)C (stereo not given) | 16.8% | 6.5% |  |
| CCOc1cc(=O)n(CCCO)c2c1CC(CC=C(C)C)C(C)(C)C2 (stereo not given) | 66.5% | 16.6% | 7.3 µM |
| COc1cccc(NC(=O)Oc2cc(=O)n(CCCO)c3c2CC(C/C=C(\C)CCC=C(C)C)C(C)(C)C3)c1 (stereo not given) | 47% | 11.3% |  |
| COc1ccc(OCCCOc2cc(=O)n(CCCO)c3c2CC(C/C=C(\C)CCC=C(C)C)C(C)(C)C3)cc1 (stereo not given) | 20% | 0% |  |

| SMILES | inhibition at 10 µM [1] | inhibition at 10 µM [2] | IC50 [3] |
| --- | --- | --- | --- |
| CC(C)=CCC/C(C)=C/CC1Cc2c(OC(=O)Nc3ccc(Cl)cc3)cc(=O)n(CCCO)c2CC1(C)C (stereo not given) | 47.2% | 4.3% |  |
| CC(C)=CCC1Cc2c(OCCCNS(=O)(=O)c3ccc(Br)cc3)cc(=O)n(CCCO)c2CC1(C)C (stereo not given) | 19.5% | 3.7% |  |
| CC(C)=CCC/C(C)=C/COc1cc(=O)n(CCCO)c2c1CC(CC=C(C)C)C(C)(C)C2 (stereo not given) | 10.6% | 18.4% |  |
| CC(C)=CCC/C(C)=C/CC1Cc2c(O)cc(=O)n(CCCO)c2CC1(C)C (stereo not given) | 28.7% | 0% |  |
| CC(C)=CCC1Cc2c(OC(=O)Nc3ccc(F)c(F)c3)cc(=O)n(CCCO)c2CC1(C)C (stereo not given) | 76.7% | 0% | 7.3 µM |
| CC(C)=CCC1Cc2c(OC(=O)Nc3ccc(F)cc3F)cc(=O)n(CCCO)c2CC1(C)C (stereo not given) | 69.7% | 0% |  |
| CC(C)=CCC1Cc2c(OC(=O)Nc3ccc(F)cc3)cc(=O)n(CCCO)c2CC1(C)C (stereo not given) | 71.2% | 0% | 7.7 µM |
| CC(C)=CCC/C(C)=C/CC1Cc2c(OCCCOc3ccc([N+](=O)[O-])cc3)cc(=O)n(CCCO)c2CC1(C)C (stereo not given) | 65.1% | 9.8% | 6.3 µM |
| CC(C)=CCC/C(C)=C/CC1Cc2c(OCCCNS(=O)(=O)c3ccc(Br)cc3)cc(=O)n(CCCO)c2CC1(C)C (stereo not given) | 15.2% | 0% |  |
| CC(C)=CCC/C(C)=C/CC1Cc2c(OCCCOc3ccc(Cl)cc3)cc(=O)n(CCCO)c2CC1(C)C (stereo not given) | 25.2% | 0% |  |
| COc1ccc(NC(=O)Oc2cc(=O)n(CCCO)c3c2CC(CC=C(C)C)C(C)(C)C3)cc1 (stereo not given) | 3.7% | 0% |  |
| CC(C)=CCC1Cc2c(OCCCNS(=O)(=O)c3ccc(C(F)(F)F)cc3)cc(=O)n(CCCO)c2CC1(C)C (stereo not given) | 29.6% | 0% |  |
| CC(C)=CCC1Cc2c(OCc3ccccc3)cc(=O)n(CCCO)c2CC1(C)C (stereo not given) | -0.3% | 11.1% |  |
| CC(C)=CCC1Cc2c(OC(=O)Nc3ccccc3F)cc(=O)n(CCCO)c2CC1(C)C (stereo not given) | 52.3% | 0% |  |
| CC(C)=CCC1Cc2c(OCCCOc3ccc(Cl)cc3)cc(=O)n(CCCO)c2CC1(C)C (stereo not given) | 22.7% | 0% |  |
| CC(C)=CCC1Cc2c(OCCCNC(=O)c3ccc([N+](=O)[O-])cc3)cc(=O)n(CCCO)c2CC1(C)C (stereo not given) | 49.9% | 9.1% |  |
| CC(C)=CCC/C(C)=C/CC1Cc2c(OCCCNC(=O)c3ccco3)cc(=O)n(CCCO)c2CC1(C)C (stereo not given) | 69.5% | 2.8% | 5.2 µM |
| CC(C)=CCC1Cc2c(OC(=O)Nc3ccc(F)c(Cl)c3)cc(=O)n(CCCO)c2CC1(C)C (stereo not given) | 79.8% | 0% | 6.8 µM |
| CC(C)=CCC1Cc2c(OC(=O)Nc3ccc(Cl)c(Cl)c3)cc(=O)n(CCCO)c2CC1(C)C (stereo not given) | 61.4% | 1.8% |  |
| CC(C)=CCC/C(C)=C/CC1Cc2c(OC(=O)Nc3ccc(F)c(F)c3)cc(=O)n(CCCO)c2CC1(C)C (stereo not given) | 43.7% | 4.8% |  |
| CC(C)=CCC/C(C)=C/CC1Cc2c(OCC=C(C)C)cc(=O)n(CCCO)c2CC1(C)C (stereo not given) | 30.3% | 15.9% |  |
| CCOc1cc(=O)n(CCCO)c2c1CC(C/C=C(\C)CCC=C(C)C)C(C)(C)C2 (stereo not given) | 67.8% | 0.8% | 5.8 µM |
| CC(C)=CCC/C(C)=C/COc1cc(=O)n(CCCO)c2c1CC(C/C=C(\C)CCC=C(C)C)C(C)(C)C2 (stereo not given) | 15.8% | 3.1% |  |
| COc1ccc(C(=O)NCCCOc2cc(=O)n(CCCO)c3c2CC(CC=C(C)C)C(C)(C)C3)cc1 (stereo not given) | 55.5% | 2.5% |  |
| COc1cccc(NC(=O)Oc2cc(=O)n(CCCO)c3c2CC(CC=C(C)C)C(C)(C)C3)c1 (stereo not given) | 16.2% | 0% |  |
| CC(C)=CCC/C(C)=C/CC1Cc2c(OCCCNS(=O)(=O)c3ccc([N+](=O)[O-])cc3)cc(=O)n(CCCO)c2CC1(C)C (stereo not given) | 7.4% | 0% |  |
| COc1ccc(C(=O)NCCCOc2cc(=O)n(CCCO)c3c2CC(C/C=C(\C)CCC=C(C)C)C(C)(C)C3)cc1 (stereo not given) | 45.7% | 14.1% |  |
